How the values were obtained:
human RBP4 = target: T1, human RBP4 (Homo sapiens, UniProt P02753); assay: Binding assay by Retinol-RBP4-TTR ELISA (human type ELISA); details: retinol 0.5 μM, read-out: human RBP4 binding inhibitory activity (IC50 nM)
T1 construct: the culture supernatant containing secreted/expressed hRBP4-His was recovered; His tag (His6, read from the HISENU oligo); made in house; host or cells: FreeStyle293 expression system (Invitrogen), secreted into the culture supernatant
Protocol: The action of the compound of the present invention to inhibit the binding between RBP4, and retinol and TTR was evaluated using the Retinol-RBP4-TTR ELISA (human type ELISA) system shown below.
The binding assay was performed by an ELISA system (Retinol-RBP4-TTR ELISA) for detecting retinol-RBP4-TTR conjugate by streptavidin-biotin reaction.
His-tagged human RBP4 used was prepared in the above-mentioned 1C.
Biotinylated human TTR used was prepared in the above-mentioned 1E.
Streptavidin (20 μl) (10 μg/ml Streptavidin type II (Wako Pure Chemical Industries, Ltd.), 10 mM Tris-HCl (pH 7.5), 10 mM NaCl) was added to a 384 well black maxisorp plate (Nunc), and the plate was subjected to centrifugation (1000 rpm, 1 min) and coated overnight at 4° C. The plate was washed twice with PBST (PBS, 0.05% Tween 20, 100 μl/well) and blocked with 25% Block Ace (Snow Brand Milk Products Co., Ltd., PBS, 100 μl/well). The plate was subjected to centrifugation (1000 rpm, 1 min) and incubated at room temperature for 4 hr or overnight at 4° C. The plate was washed twice with PBST (PBS, 0.05% Tween 20, 100 μl/well), and biotinylated human TTR (stock solution concentration 1.3 mg/ml) diluted 1000-fold with PBST was added at 20 μl/well. The plate was subjected to centrifugation (1000 rpm, 1 min) and stood still at room temperature for 1.5 hr or overnight at 4° C. The plate was washed 3 times with PEST (100 μl/well), and His-tagged human RBP4 (stock solution concentration 0.96 mg/ml) diluted 4000-fold with a reaction buffer (50 mM Tris-HCl, 150 mM NaCl, 0.005% Tween 20, 1 mM DTT, 0.1% BSA) was added at 10 μl/well. The dilution series (8 doses from 10 mM, 200-fold concentration) of the compound was prepared with DMSO, and 1 μl of each was added to a reaction buffer (200 μl) containing retinol (0.5 μM) (Sigma-Aldrich Co.). A reaction buffer (200 μl) containing retinol and added with DMSO was used as a positive control, and reaction buffer (200 μl) free of retinol and added with DMSO was used as a negative control. Mixed solutions of retinol and the compound were added to the plate at 15 μl/well. The mixture was stirred in a platemixer, subjected to centrifugation (1000 rpm, 1 min) and reacted at room temperature for 2 hr. A 35% Block Ace solution diluted with the reaction buffer was added at 10 μl/well, centrifuged (1000 rpm, 1 min) and reacted at room temperature for 30 min. The plate was washed 3 times with PBST (100 μl/well) and SuperSignal ELISA Femto Maximum Sensitivity Substrate reagent (PIERCE) was added at 30 μl/well, and the luminescence was measured by a platereader (Wallac).
The binding activity rate of the compound was determined by 100×(test compound value−negative control value)/(positive control value−negative control value). The binding inhibitory activity (IC50) was calculated from the binding activity rate at each compound concentration using a graph drawing software, Prism (GraphPad Software Inc.).

RBP4 = target: T2, RBP4 (Mus musculus, UniProt Q00724); assay: Blood RBP4 lowering action in C57BL/6J mouse, single oral administration; assay type: in vivo; details: plasma, mean±SD n=5; for RBP4 (% of initial/Control) 0 hr later: 0 hr value before administration, 50 mg/kg oral; for RBP4 (% of initial/Control) 4 hr later: 4 hr after 50 mg/kg oral; for RBP4 (% of initial/Control) 7 hr later: 7 hr after 50 mg/kg oral; for RBP4 (% of initial/Control) 24 hr later: 24 hr after 50 mg/kg oral
T2 construct: from tissue; host or cells: plasma of male C57BL/6J mice (Charles River Laboratories Japan Inc.)
Protocol: A blood RBP4 lowering action of the compound of the present invention was evaluated using C57BL/6J mouse.
Male 7- to 15-week-old C57BL/6J mice (Charles River Laboratories Japan Inc.) were individually bred for acclimation for 4-6 days under conditions with free access to CE-2 solid food (CLEA Japan, Inc.), and grouped based on the body weight (5 per group). The next day of grouping, blood samples were collected from the orbital venous plexus, and plasma was separated (0 hr value). Thereafter, the test compounds (Examples 1, 13, 15, 16, 17, 27 and 34) were orally administered at a dose of 50 mg/kg (solvent: 0.5% methylcellulose solution (10 mL/kg)). At 4, 7 and 24 hr after administration of the compounds, blood samples were collected from the orbital venous plexus, and plasma was separated. A 0.5% methylcellulose solution (10 mL/kg) was orally administered to the control group.
The RBP4 level of the collected plasma was measured by ELISA. RBP4 was quantified by the following steps using a rabbit, anti-mouse RBP4 polyclonal antibody (Hokudo Co., Ltd). A 96 well ELISA plate was coated with 50 μg/ml of the antibody (100 μL) and stood at 4° C. overnight. After blocking with BlockAce (DAINIPPON PHARMACEUTICAL CO., LTD.), mouse RBP4 or a sample (100 μL) was added and the plate was stood at room temperature for 2 hr. After washing with PBS-0.5% Tween 20, HRP-labeled anti-RBP4 antibody (prepared by labeling RBP4 polyclonal antibody (Hokudo Co., Ltd) with HRP (DOJINDO LABORATORIES)) was added by 100 μL, and the plate was stood at room temperature for 1 hr. After washing, TMB (Dako Cytomations) was added, and the mixture was stood at room temperature for 20 min to allow color development, and the reaction was quenched with 2N sulfuric acid. Thereafter, the absorbance at A450 nm was measured on a platereader. The amount of change from the initial value of each animal was determined as a relative value from the control group (% of initial/Control) at each time point. The results are shown in the following in mean±standard deviation (n=5).

Zucker fa/fa rats = assay: Hypoglycemic action in Zucker fa/fa rats (Experimental Example 4B); assay type: in vivo, rat; details: 10 mg/kg oral for 2 weeks, mean±SD n=5; for blood glucose level / RBP4: 24 hr after final administration; for glycated hemoglobin change (%): value after minus before administration; for RBP4: plasma
Protocol: A hypoglycemic action of the compound of the present invention was evaluated using Zucker fa/fa rats.
Male 25-week-old Zucker fa/fa rats (Takeda Pharmaceutical Company Limited) were acclimation bred in groups on CE-2 solid food (CLEA Japan, Inc.) up to 12 weeks of age, thereafter on high-fat diet D06110702 (LSG Corporation), with free access to food. At 25 weeks of age, the rats were grouped based on the body weight, blood glucose level, glycated hemoglobin level and blood RBP4 level (5 per group). Then, test compounds (Examples 16 and 17) were orally administered at a dose of 10 mg/kg (solvent: 0.5% methylcellulose solution (3 mL/kg)) for 2 weeks. At 24 hr from the final administration of the compounds, blood samples were collected from the tail vein, and plasma was separated. Using the collected plasma, (1) RBP4 concentration, (2) glycated hemoglobin level and (3) blood glucose level were measured. (1) was quantified according to the protocol described in Experimental Example 3. (2) was measured using Tosoh Corporation automatic glycohamoglobin analyzer (HLC-723 GHbV A1c2.2 or HLC-723G7 GHbV A1c2.2), and (3) was measured using Hitachi full-automatic analyzer (7070 or 7080).
A 0.5% methylcellulose solution (3 ml/kg) was orally administered to the control group. The results are shown below in mean±standard deviation (n=5). In the following Table, glycated hemoglobin change is obtained by subtracting the value before administration from that after administration.

IC50 (human RBP4) [nM] | RBP4 (% of initial/Control) 0 hr later (RBP4) | RBP4 (% of initial/Control) 4 hr later (RBP4) | RBP4 (% of initial/Control) 7 hr later (RBP4) | RBP4 (% of initial/Control) 24 hr later (RBP4) | Compound | blood glucose level (Zucker fa/fa rats) [mg/dL] | glycated hemoglobin change (%) (Zucker fa/fa rats) | RBP4 (Zucker fa/fa rats) [µg/mL]
20 | 100.0 ± 7.1 % of initial/Control | 42.2 ± 0.6 % of initial/Control | 40.5 ± 0.2 % of initial/Control | 38.6 ± 0.8 % of initial/Control | O=C(O)CO[C@@H]1CCN(c2cc(C(F)(F)F)cc(C(F)(F)F)c2)C1 [Example 17, ({(3R)-1-[3,5-bis(trifluoromethyl)phenyl]pyrrolidin-3-yl}oxy)acetic acid] | 255.4 ± 106.7 | −0.60 ± 0.39 | 6.0 ± 0.1
28 | 100.0 ± 11.0 % of initial/Control | 39.5 ± 0.6 % of initial/Control | 39.6 ± 0.4 % of initial/Control | 37.5 ± 0.4 % of initial/Control | O=C(O)CO[C@H]1CCN(c2cc(C(F)(F)F)cc(C(F)(F)F)c2)C1 [Example 16, ({(3S)-1-[3,5-bis(trifluoromethyl)phenyl]pyrrolidin-3-yl}oxy)acetic acid] | 275.9 ± 127.5 | −0.58 ± 0.59 | 5.7 ± 0.1

From patent US8338622B2, “Heterocyclic compound” (Takeda Pharmaceutical Company Limited, priority 2008, dated 2012)
